For one data set, the system named is SW480 cells. Nature of the data set: Cytotoxic effects (cell shape) seen in drug-treated cells during ISH-PLA imaging. Type of data set: cell-based, human. As to conditions: 500 nM for 24 hours, a few drug treated cells.
Data set [1] relates to SEPTIN 9 promoter methylation in SW480 cells. The data set can be described thus: ISH-PLA visualization of SEPTIN 9 promoter methylation after drug treatment. In kind it is cell-based, human. As to conditions: SW480 colon cancer cells, 500 nM for 24 hours, SEPTIN 9 probe set (ii), FIG. 5.
Protocol: With this aim, a protocol was developed to perform in-situ hybridization followed by proximity ligation assay (PLA) (a.k.a., DUOLINK®, Sigma-Aldrich) and cell imaging to visualize DNA-methylation (5 meC) on the SEPTIN 9 promoter. […] The PLA assay was performed using anti-biotin and anti-5 meC antibodies, corresponding (+ and −) PLA probes, and Far Red detection reagents.
Human cancer cells, i.e., DU145 (metastatic cancer; origin in prostrate migrated to brain) or SW480 (colon cancer), were grown in DMEM (Dulbecco's Modified Eagle's Medium) supplemented with 10% FBS and Pen/Strep antibiotics, and seeded (˜10^4 cells) per well of 8-well culture chambered coverglass plates (with silicone gasket). The cells were washed twice with HBSS, and then fixed with 4% paraformaldehyde solution (40 μL/well, 16% paraformaldehyde stock diluted 1:4 in 1×PBS) for 30 minutes at room temperature (RT). The crosslinking was stopped by adding 5 μL/well of 1.25M Glycine, and incubating at RT for 5 minutes. The cells were permeabilized by incubation for 1 hour at RT with permeabilization buffer (0.75% Tween 20 and 0.75% Triton X-100 in 1×PBS). The cells were rinsed with 1×PBS. For detection of 5-meC DNA, the cells were treated with 4 N HCL for 10 minutes at RT. The cells were washed with 1×PBS for 30 min at RT. […]

Molecules are shown by their SMILES.

As for `Nc1ncn([C@@H]2O[C@H](CO)[C@@H](O)[C@H]2O)c(=O)n1` [5-Azacytidine], the “cytotoxic effects (altered cellular shape)” value with SW480 cells is listed as “cytotoxic effects in terms of altered cellular shape”. Besides, the “SEPTIN 9 promoter methylation (nuclear ISH-PLA signal)” value is “Loss of this nuclear ISH-PLA signal” in data set [1] and “diminished” in data set [1] (listed as 5-AzaC).

These data come from patent publication US10253356B2, “Visualizing modified nucleotides and nucleic acid interactions in single cells” (SIGMA-ALDRICH CO. LLC, priority 2014, dated 2019).
